Results on 24 compounds are retold here after PubChem BioAssay AID330 (DTP/NCI, 2004).

Several values for one entry are separate records, joined by “and”; a condition that tells them apart may be missing. Equal entries are not always repeated. Inconclusive results and toxic doses are left out.

The test system of the assay is P388 leukemia ip, CD2F1 mice, survival T/C. Description: NCI In Vivo Anticancer Drug Screen. Data for tumor model P388 Leukemia (intraperitoneal) in CD2F1 (CDF1) mice. Conditions: endpoint: median survival time, higher = longer survival. The procedure, abridged:
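Mice carrying the transplanted tumor received test compound or vehicle. Survival was recorded in each group, and the value is the treated-group measurement divided by that of the vehicle-treated control group.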

The mark [1] stands for this setting: dose: 60.0 mg/kg/injection, schedule: Q01DX005 (ip), vehicle: saline with Tween-80.
Setting [2] is: dose: 120.0 mg/kg/injection, schedule: Q01DX005 (ip), vehicle: saline with Tween-80.
Where [3] appears, read: dose: 240.0 mg/kg/injection, schedule: Q01DX005 (ip), vehicle: saline with Tween-80.
Where [4] appears, read: dose: 50.0 mg/kg/injection, schedule: Q01DX009 (ip), vehicle: Klucel (hydroxypropylcellulose) (HPC).
[5] abbreviates: dose: 100.0 mg/kg/injection, schedule: Q01DX009 (ip), vehicle: Klucel (hydroxypropylcellulose) (HPC).
[6] abbreviates: dose: 200.0 mg/kg/injection, schedule: Q01DX009 (ip), vehicle: Klucel (hydroxypropylcellulose) (HPC).
Setting [7] is: dose: 50.0 mg/kg/injection, schedule: Q01DX009 (ip), vehicle: saline with Tween-80.
The mark [8] stands for this setting: dose: 100.0 mg/kg/injection, schedule: Q01DX009 (ip), vehicle: saline with Tween-80.
Setting [9] is: dose: 12.5 mg/kg/injection, schedule: Q01DX009 (ip), vehicle: Klucel (hydroxypropylcellulose) (HPC).
Where [10] appears, read: dose: 25.0 mg/kg/injection, schedule: Q01DX009 (ip), vehicle: Klucel (hydroxypropylcellulose) (HPC).
The mark [11] stands for this setting: dose: 200.0 mg/kg/injection, schedule: Q01DX009 (ip), vehicle: saline with Tween-80.
The mark [12] stands for this setting: dose: 400.0 mg/kg/injection, schedule: Q01DX009 (ip), vehicle: saline with Tween-80.

As for `C1CCCc2c(-c3n[nH]c4c3CCCCCC4)n[nH]c2CC1`, the T/C reads like this: under setting [1], 100 % of control; under setting [2], 95 % of control; under setting [3], 100 % of control.

For `CCCCCCCCCC(=O)C(=O)c1ccc(O)c(C)c1O`, the T/C was 94 % of control under setting [4], 94 % of control under setting [5] and 94 % of control under setting [6].

`CCOC(=O)CC/C(=C\NC(=O)c1ccccc1)NC(=O)c1ccccc1`: the T/C is, setting by setting: under setting [1], 96 % of control; under setting [2], 88 % of control; under setting [3], 90 % of control.

As for `CC1=CC(=O)CCC12CCOC2=O` (configuration not stated), the T/C is 104 % of control under setting [1], 101 % of control under setting [2] and 101 % of control under setting [3].

With `CCCCCCCC[N+](C)(C)CC#CC[N+](C)(C)CCCCCCCC`, the T/C by setting is: (dose: 6.25 mg/kg/injection, schedule: Q04DX003 (ip), vehicle: saline) 96 % of control; (dose: 12.5 mg/kg/injection, schedule: Q04DX003 (ip), vehicle: saline) 103 % of control.

With `O=C1C2C3CCC(C2C(=O)N1CO)C1C2C(=O)N(CO)C(=O)C2C31` (configuration not stated), the T/C (dose: 12.5 mg/kg/injection, schedule: Q01DX009 (ip), vehicle: saline with Tween-80) was 105 % of control; the T/C (dose: 25.0 mg/kg/injection, schedule: Q01DX009 (ip), vehicle: saline with Tween-80) was 102 % of control and 116 % of control; the T/C under setting [7] is 166 % of control; the T/C under setting [8] was 205 % of control and 208 % of control.

Consider `O=C(Nc1ccc(F)cc1)NN1CCOCC1`, for which the T/C is, setting by setting: under setting [1], 102 % of control; under setting [2], 104 % of control; under setting [3], 103 % of control.

With `O=C1CCCC1C(=O)c1ccccc1.O=C1CCCC1C(=O)c1ccccc1.[Cu]` (configuration not stated), the T/C is, setting by setting: under setting [9], 103 % of control; under setting [10], 100 % of control; under setting [4], 100 % of control and 109 % of control; under setting [5], 116 % of control.

As for `O=C1C(=O)N(c2ccccc2)[C@@]2(c3ccccc3)C(=Nc3ccccc3)OC(c3ccccc3)=C12`, the T/C was 90 % of control (dose: 60.0 mg/kg/injection, schedule: Q01DX005 (ip), vehicle: Klucel (hydroxypropylcellulose) (HPC)); 90 % of control (dose: 120.0 mg/kg/injection, schedule: Q01DX005 (ip), vehicle: Klucel (hydroxypropylcellulose) (HPC)); 88 % of control (dose: 240.0 mg/kg/injection, schedule: Q01DX005 (ip), vehicle: Klucel (hydroxypropylcellulose) (HPC)).

With `O=[N+]([O-])c1cccc2ccc(N/N=C/c3ccccc3O)nc12`, the T/C runs as follows: under setting [4], 94 % of control; under setting [7], 86 % of control; under setting [5], 87 % of control and 91 % of control; under setting [8], 93 % of control; under setting [11], 88 % of control; under setting [12], 89 % of control.

Regarding `Cc1ccc(/C2=C(\c3ccc(C)cc3)N(c3ccccc3)CCCCN2c2ccccc2)cc1`, the T/C (dose: 100.0 mg/kg/injection, schedule: Q04DX002 (ip), vehicle: Klucel (hydroxypropylcellulose) (HPC)) was 99 % of control; the T/C (dose: 200.0 mg/kg/injection, schedule: Q04DX002 (ip), vehicle: Klucel (hydroxypropylcellulose) (HPC)) is 99 % of control; the T/C (dose: 400.0 mg/kg/injection, schedule: Q04DX002 (ip), vehicle: Klucel (hydroxypropylcellulose) (HPC)) was 99 % of control.

As to `CC(CCCN)Nc1cc(O)cc2cccnc12` (configuration not stated), the T/C is 92 % of control (dose: 100.0 mg/kg/injection, schedule: Q01DX001 (ip), vehicle: saline); 92 % of control (dose: 200.0 mg/kg/injection, schedule: Q01DX001 (ip), vehicle: saline); 89 % of control (dose: 400.0 mg/kg/injection, schedule: Q01DX001 (ip), vehicle: saline).

For the compound `OC(CNC1CCCCC1)c1ccccc1` (configuration not stated), the T/C (dose: 6.25 mg/kg/injection, schedule: Q01DX009 (ip), vehicle: Klucel (hydroxypropylcellulose) (HPC)) was 98 % of control; the T/C under setting [9] was 100 % of control; the T/C under setting [10] is 95 % of control; the T/C under setting [4] is 109 % of control.

On to `Nc1nc2c(c(=O)[nH]1)NC(CN(C(=O)CCCl)c1ccc(C(=O)NC(CCC(=O)O)C(=O)O)cc1)CN2` (configuration not stated), for which the T/C is 101 % of control (dose: 50.0 mg/kg/injection, schedule: Q01DX001 (ip), vehicle: alkali diluted with saline); 104 % of control (dose: 100.0 mg/kg/injection, schedule: Q01DX001 (ip), vehicle: alkali diluted with saline); 101 % of control (dose: 200.0 mg/kg/injection, schedule: Q01DX001 (ip), vehicle: alkali diluted with saline).

`CC(=C/c1cc(C)cc(=O)o1)/C=C/c1ccc(C)c(C)c1C`: the T/C (dose: 12.5 mg/kg/injection, schedule: Q01DX005 (ip), vehicle: Klucel (hydroxypropylcellulose) (HPC)) is 97 % of control; the T/C (dose: 25.0 mg/kg/injection, schedule: Q01DX005 (ip), vehicle: Klucel (hydroxypropylcellulose) (HPC)) is 97 % of control; the T/C (dose: 50.0 mg/kg/injection, schedule: Q01DX005 (ip), vehicle: Klucel (hydroxypropylcellulose) (HPC)) is 99 % of control and 88 % of control and 90 % of control; the T/C (dose: 200.0 mg/kg/injection, schedule: Q01DX005 (ip), vehicle: Klucel (hydroxypropylcellulose) (HPC)) was 86 % of control and 88 % of control.

With `COc1c(C(C)C)ccc2c1CCC1=C3COC(=O)C3CCC12C` (configuration not stated), the T/C by setting is: (dose: 6.25 mg/kg/injection, schedule: Q01DX009 (ip), vehicle: DMSO) 109 % of control; (dose: 12.5 mg/kg/injection, schedule: Q01DX009 (ip), vehicle: DMSO) 99 % of control; (dose: 25.0 mg/kg/injection, schedule: Q01DX009 (ip), vehicle: DMSO) 97 % of control.

Consider `CCN(C(=S)NCCCOC)c1ccc(C)cc1`, for which the T/C runs as follows: under setting [4], 97 % of control; under setting [5], 86 % of control; under setting [6], 87 % of control.

On to `O=C1CSC(=Nc2ccccc2F)N1c1ccccc1F`, for which the T/C is, setting by setting: under setting [4], 110 % of control; under setting [5], 107 % of control.

Consider `O=C(NC(Cc1ccccc1)C(=O)NC(Cc1c[nH]c2ccccc12)C(=O)O)OCc1ccccc1` (configuration not stated), for which the T/C (dose: 50.0 mg/kg/injection, schedule: Q01DX005 (ip), vehicle: saline with Tween-80) was 90 % of control; the T/C (dose: 100.0 mg/kg/injection, schedule: Q01DX005 (ip), vehicle: saline with Tween-80) is 98 % of control; the T/C (dose: 200.0 mg/kg/injection, schedule: Q01DX005 (ip), vehicle: saline with Tween-80) was 91 % of control.

As for `O=C(Nc1cccc(Cl)c1)Oc1cccnc1`, the T/C under setting [1] was 99 % of control, the T/C under setting [2] is 88 % of control and the T/C under setting [3] was 89 % of control.

`NS(=O)(=O)c1ccc(Nc2c3ccccc3nc3ccccc23)cc1`: the T/C by setting is: (dose: 100.0 mg/kg/injection, schedule: Q04DX003 (ip), vehicle: Klucel (hydroxypropylcellulose) (HPC)) 110 % of control and 86 % of control (2×); (dose: 118.0 mg/kg/injection, schedule: Q04DX003 (ip), vehicle: Klucel (hydroxypropylcellulose) (HPC)) 93 % of control; (dose: 200.0 mg/kg/injection, schedule: Q04DX003 (ip), vehicle: Klucel (hydroxypropylcellulose) (HPC)) 118 % of control and 90 % of control; (dose: 236.0 mg/kg/injection, schedule: Q04DX003 (ip), vehicle: Klucel (hydroxypropylcellulose) (HPC)) 99 % of control; (dose: 400.0 mg/kg/injection, schedule: Q04DX003 (ip), vehicle: Klucel (hydroxypropylcellulose) (HPC)) 120 % of control and 88 % of control and 95 % of control; (dose: 472.0 mg/kg/injection, schedule: Q04DX003 (ip), vehicle: Klucel (hydroxypropylcellulose) (HPC)) 99 % of control.

Turning to `C[N+](C)(C)[N-]C(=N)c1ccccc1`, the T/C reads like this: (dose: 25.0 mg/kg/injection, schedule: Q01DX001 (ip), vehicle: suspension in saline) 102 % of control; (dose: 50.0 mg/kg/injection, schedule: Q01DX001 (ip), vehicle: suspension in saline) 104 % of control; (dose: 100.0 mg/kg/injection, schedule: Q01DX001 (ip), vehicle: suspension in saline) 99 % of control and 110 % of control.

As for `O=C(N/N=C/c1ccccc1O)N/N=C/c1ccccc1O`, the T/C is, setting by setting: under setting [7], 96 % of control; under setting [8], 96 % of control; under setting [11], 96 % of control; under setting [12], 87 % of control.

With `COc1ccc(N=N/N=c2\sc3cc(Cl)ccc3n2C)cc1`, the T/C (dose: 7.5 mg/kg/injection, schedule: Q01DX005 (ip), vehicle: saline with Tween-80) is 115 % of control; the T/C (dose: 15.0 mg/kg/injection, schedule: Q01DX005 (ip), vehicle: saline with Tween-80) was 113 % of control and 121 % of control; the T/C (dose: 30.0 mg/kg/injection, schedule: Q01DX005 (ip), vehicle: saline with Tween-80) was 115 % of control and 124 % of control; the T/C under setting [1] is 112 % of control.
